Assay results as given in patent US12685780B2, “Immune inducer containing polynucleotide-peptide conjugate and pharmaceutical composition containing same” (The University of Kitakyushu, priority 2020, dated 2026).
Entries after “also recorded” stand apart in the source; their conditions may differ.

What was measured:
MHC-1 on DC2.4 cells = biological target: T1, MHC-1 on DC2.4 cells (Mus musculus, UniProt P01901); test: Competitive inhibition of binding of OVA peptide 1 to MHC-1 on DC2.4 cells; parameters: species or system murine; conditions: peptide 2.5 μg/mL against OVA peptide 1 0.25 μg/mL, on ice 30 minutes
T1 construct: endogenous in cells; host or cells: DC2.4 murine dendritic cell line
T1 sequence (P01901 22-369): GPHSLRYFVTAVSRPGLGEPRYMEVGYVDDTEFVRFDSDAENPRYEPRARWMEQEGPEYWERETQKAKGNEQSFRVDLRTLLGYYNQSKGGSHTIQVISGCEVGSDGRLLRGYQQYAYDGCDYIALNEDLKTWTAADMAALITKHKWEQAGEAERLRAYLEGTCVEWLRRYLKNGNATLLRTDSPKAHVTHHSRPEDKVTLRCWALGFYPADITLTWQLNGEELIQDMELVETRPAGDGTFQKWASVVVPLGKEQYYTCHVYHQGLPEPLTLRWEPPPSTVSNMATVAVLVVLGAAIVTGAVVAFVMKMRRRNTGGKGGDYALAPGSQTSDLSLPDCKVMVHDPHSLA
T1 sequence (P01887 21-119 partner): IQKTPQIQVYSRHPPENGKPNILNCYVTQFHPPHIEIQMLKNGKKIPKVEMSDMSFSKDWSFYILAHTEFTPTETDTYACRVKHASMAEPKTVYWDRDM
Protocol: Murine dendritic cell line, DC2.4 cells, were detached from a dish, and suspended in 1.5 mL tubes at a concentration of 1.5×10^5 cells per […] of PBS.

[1] = test system: antigen-retaining splenocytes (TRP2-9); test: Induction of cytotoxic T lymphocytes in mice (in vivo CTL assay, flow cytometry), mTRP2 antigen; parameters: species or system C57BL/6 mice; conditions: antigen TRP2-9
Protocol: A CpG DNA(S)-peptide conjugate as an antigen was intracutaneously administered to mice (C57BL/6 mice (♂, 7 weeks old)). The dose of a CpG DNA(S)-peptide conjugate was 50, 200 or 1000 ng per mouse in terms of peptide (about 0.4, 1.7 or 8.5 μg in terms of CpG30(S)). After one week of administration, splenocytes were isolated from those mice of the same strain not receiving administration, and divided into two aliquots of 2.0×10^7 cells/mL. To one aliquot, a peptide as an antigen was added to a concentration of 10 μg/mL, and the mixture was left to stand for 90 minutes to prepare antigen-retaining splenocytes. The other aliquot of splenocytes with no peptide added was regarded as non-antigen-retaining splenocytes. Both of the antigen-retaining splenocytes and the non-antigen-retaining splenocytes were fluorescently modified with 5,6-carboxyfluorescein succinimidyl ester (CFSE). During this process, the concentration of CFSE was varied such that the fluorescence intensity of the antigen-retaining splenocytes (CFSE: 1 μm) was higher than that of the non-antigen-retaining splenocytes (CFSE: 0.1 μm).
After the lapse of 24 hours from the tail vein administration, splenocytes were isolated from the mice, and evaluated for induced antigen-specific cytotoxic T lymphocyte activity through flow cytometrically quantifying the percentages of antigen-retaining and non-antigen-retaining splenocytes to determine the amount of decrease in antigen-retaining splenocytes. For comparison's sake, other mice were administered PBS (phosphate-buffered saline) instead of a CpG DNA(S)-peptide conjugate, and were regarded as control groups. The control groups were subjected to flow cytometric analysis under the same conditions.
The dose of the conjugates administered was 200 ng per mouse in terms of peptide.
The second administration was performed after 10 days from the first administration. Both of the two doses were 200 ng per mouse in terms of peptide.

C-TRP2-8: CVYDFFVWL (SEQ ID NO: 32); cysteine added to N-terminus of amino acid residues 181 to 188 of mTRP2 (C-TRP2-8)
Decrease of average fluorescence intensity (OVA peptide 1-MHC-1 complexes on DC2.4 cells) (MHC-1 on DC2.4 cells): 23%

C-TRP2-9: CSVYDFFVWL (SEQ ID NO: 31); cysteine added to the N-terminus of TRP2-9 (C-TRP2-9)
Inhibitory activity against binding of OVA peptide 1 to MHC class I molecules (MHC-1 on DC2.4 cells): no inhibitory activity was observed

CpG20(S)a-mTRP2pep9: CpG20(S)a (SEQ ID NO: 1) conjugated to peptide C-TRP2-8 (CVYDFFVWL) (DNA atcgactctcgagcgttctc; oligonucleotide-peptide conjugate; K3)
CTL-inducing ability (decrease in antigen-retaining splenocytes) ([1]; dose not stated): high CTL-inducing ability

CpG30(S)a-mTRP2pep9: CpG30(S)a (SEQ ID NO: 6, phosphorothioate) conjugated via disulfide spacer to peptide C-TRP2-8 (CVYDFFVWL) (DNA gagcgttctcatcgactctcgagcgttctc; phosphorothioate; disulfide spacer conjugate; K3-30(a))
CTL-inducing ability (decrease in antigen-retaining splenocytes) ([1]; 200 ng per mouse in terms of peptide, intracutaneous, single dose): marked decrease in antigen-retaining splenocytes; also recorded: can induce potent CTL activity | CTL-inducing ability (decrease in antigen-retaining splenocytes) ([1]; dose not stated): high CTL-inducing ability | Dose dependency of CTL-inducing ability ([1]; doses of 50, 200 or 1000 ng per mouse in terms of peptide): dose dependency
